Data from patent US20030229164A1, “Low foam N-alkyltartarimide and N-alkylmalimide wetting agents” (priority 2002, published 2003).

Legend:
[1] = Foaming properties of aqueous solutions, procedure based upon ASTM D 1173-53; format: physicochemical; conditions: for Initial Foam: foam height at completion of addition
Procedure: The foaming properties of aqueous solutions of N-2-ethylhexyl tartarimide (Ex 1), N-decyl tartarimide (Ex 2), N-2-ethylhexyl malimide (Ex 4) and two representative nonionic surfactants, a commercial nonylphenol 15 mole ethoxylate surfactant and a commercial C8 alkyl glucoside surfactant, were examined using a procedure based upon ASTM D 1173-53.
In this test, a 0.1 wt % aqueous mixtures of the tartramides and malimide were prepared, any undissolved solids were filtered off, and the filtrate was added from an elevated glass pipette to a glass receiver containing the same filtrate. Regarding the commercial materials, a 0.1 wt % solution of the surfactant was added from an elevated glass pipette to a glass receiver containing the same solution. The foam height was measured at the completion of the addition (“Initial Foam Height”) and the time required for the foam to dissipate at the air-liquid interface (“Time to 0 Foam”) was recorded. This test provides a comparison between the foaming characteristics of various surfactants. In general, in coatings, inks, adhesives and agricultural formulations, foam is undesirable because it complicates handling and can lead to coating and print defects, and to inefficient application of agricultural materials.

[2] = Equilibrium surface tension of aqueous solutions, Wilhelmy plate method; format: physicochemical; conditions: for lowering the equilibrium surface tension of water (in words): aqueous solutions, Table 1 data; for Limiting EST: saturated solutions containing <0.1 wt % in distilled water, filtered, Wilhelmy plate
Procedure: where R^1 is a C5 to C10 alkyl group. […] The Wilhelmy plate method of measuring surface tension is described in L. Wilhelmy's article in Ann. Phys. 1863, 119, 177, which is incorporated by reference.
Saturated solutions containing <0.1 wt % of the materials of Examples 1-4 in distilled water were prepared. After shaking the solutions for ˜24 hours, the undissolved material was removed via filtration. Equilibrium surface tension data were obtained using the Wilhelmy plate method.
The limiting surface tensions represent the lowest surface tensions in water which can be achieved for a given surfactant regardless of the amount of surfactant used and is used to evaluate the effectiveness of a surfactant. Lower surface tensions would allow the elimination of defects upon application of a formulation onto low energy surfaces.

[3] = 0.1 wt % aqueous mixture (filtrate) or solution

SMILES | Foam after 5 min [1, 3] | Initial Foam [1, 3] | Time to zero foam ([1]; 0.1 wt % aqueous mixture (filtrate) or solution, values given in min) | lowering the equilibrium surface tension of water (in words) [2] | Limiting EST [2] | Time to zero foam ([1]; 0.1 wt % aqueous mixture (filtrate), values printed in sec)
CCCCCCCCCCN1C(=O)C(O)C(O)C1=O (racemic) [Example 2, N-Decyl DL-tartarimide] | 0 cm | 3.2 cm | 3.8 min | particularly effective | 32.0 dyne/cm | 
CCCCC(CC)CN1C(=O)C(O)C(O)C1=O (centres unmarked) [Example 1, N-2-Ethylhexyl tartarimide] | 0 cm | 0 cm |  | particularly effective | 34.2 dyne/cm | 0 min
CCCCCCN1C(=O)C(O)C(O)C1=O (racemic) [Example 3, N-hexyl DL-tartarimide] |  |  |  |  | 51.8 dyne/cm | 
